# Laboratory results reported in PubChem BioAssay (NCI).
#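 These data come from cells grown in 96-well plates and exposed to compound for 48 hours at five concentrations. TGI is the concentration that stops growth completely.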
# Experiments:
# Test in all cases: inhibition of tumour cell growth, NCI panel, 48 h
# SK-MEL-2 melanoma = tested on: SK-MEL-2 melanoma
# SK-OV-3 ovarian = tested on: SK-OV-3 ovarian
# OVCAR-4 ovarian = tested on: OVCAR-4 ovarian
# MOLT-4 leukemia = tested on: MOLT-4 leukemia
# MDA-MB-231 breast = tested on: MDA-MB-231 breast
# EKVX NSCLC = tested on: EKVX NSCLC
# NCI-H522 lung = tested on: NCI-H522 lung
# UACC-62 melanoma = tested on: UACC-62 melanoma
# SK-MEL-28 melanoma = tested on: SK-MEL-28 melanoma
# HCC-2998 colon = tested on: HCC-2998 colon
# CAKI-1 renal = tested on: CAKI-1 renal
# KM12 colon = tested on: KM12 colon
# SK-MEL-5 melanoma = tested on: SK-MEL-5 melanoma
# UO-31 renal = tested on: UO-31 renal
# OVCAR-3 ovarian = tested on: OVCAR-3 ovarian
# U251 CNS = tested on: U251 CNS
# M14 melanoma = tested on: M14 melanoma
# SNB-19 CNS = tested on: SNB-19 CNS
# SF-268 CNS = tested on: SF-268 CNS
# HOP-62 NSCLC = tested on: HOP-62 NSCLC
# MCF7 breast = tested on: MCF7 breast
# COLO 205 colon = tested on: COLO 205 colon
# IGROV1 ovarian = tested on: IGROV1 ovarian
# PC-3 prostate = tested on: PC-3 prostate
# CCRF-CEM leukemia = tested on: CCRF-CEM leukemia
# HCT-15 colon = tested on: HCT-15 colon
# T-47D breast = tested on: T-47D breast
# BT-549 breast = tested on: BT-549 breast
# RXF 393 renal = tested on: RXF 393 renal
# MDA-MB-435 = tested on: MDA-MB-435
# SW-620 colon = tested on: SW-620 colon
# HOP-92 NSCLC = tested on: HOP-92 NSCLC
# SN12C renal = tested on: SN12C renal
# A498 renal = tested on: A498 renal
# SR leukemia = tested on: SR leukemia
# RPMI-8226 leukemia = tested on: RPMI-8226 leukemia
# LOX IMVI melanoma = tested on: LOX IMVI melanoma
# SF-539 CNS = tested on: SF-539 CNS
# 786-0 renal = tested on: 786-0 renal
# NCI/ADR-RES ovarian = tested on: NCI/ADR-RES ovarian
# K-562 leukemia = tested on: K-562 leukemia
# SNB-75 CNS = tested on: SNB-75 CNS
# NCI-H23 lung = tested on: NCI-H23 lung
# DU-145 prostate = tested on: DU-145 prostate
# MALME-3M melanoma = tested on: MALME-3M melanoma
# A549 NSCLC = tested on: A549 NSCLC
# NCI-H226 lung = tested on: NCI-H226 lung
# HS 578T breast = tested on: HS 578T breast
# OVCAR-5 ovarian = tested on: OVCAR-5 ovarian
# SF-295 CNS = tested on: SF-295 CNS
# ACHN renal = tested on: ACHN renal
# NCI-H460 lung = tested on: NCI-H460 lung
# HT29 colon = tested on: HT29 colon
# OVCAR-8 ovarian = tested on: OVCAR-8 ovarian
# TK-10 renal = tested on: TK-10 renal
# UACC-257 melanoma = tested on: UACC-257 melanoma
# HCT-116 colon = tested on: HCT-116 colon
# HL-60(TB) leukemia = tested on: HL-60(TB) leukemia
# MDA-N = tested on: MDA-N
structure (smiles),measurement,setting,value
NC1=Nc2ccccc2Sc2nncn21,TGI,SK-MEL-2 melanoma,> 100 µM
same,TGI,SK-OV-3 ovarian,> 100 µM
same,TGI,OVCAR-4 ovarian,> 100 µM
same,TGI,MOLT-4 leukemia,> 100 µM
same,TGI,MDA-MB-231 breast,> 100 µM
same,TGI,EKVX NSCLC,> 100 µM
same,TGI,NCI-H522 lung,> 100 µM
same,TGI,UACC-62 melanoma,> 100 µM
same,TGI,SK-MEL-28 melanoma,> 100 µM
same,TGI,HCC-2998 colon,> 100 µM
same,TGI,CAKI-1 renal,> 100 µM
same,TGI,KM12 colon,> 100 µM
same,TGI,SK-MEL-5 melanoma,> 100 µM
same,TGI,UO-31 renal,> 100 µM
same,TGI,OVCAR-3 ovarian,> 100 µM
same,TGI,U251 CNS,> 100 µM
same,TGI,M14 melanoma,> 100 µM
same,TGI,SNB-19 CNS,> 100 µM
same,TGI,SF-268 CNS,> 100 µM
same,TGI,HOP-62 NSCLC,> 100 µM
same,TGI,MCF7 breast,> 100 µM
same,TGI,COLO 205 colon,> 100 µM
same,TGI,IGROV1 ovarian,> 100 µM
same,TGI,PC-3 prostate,> 100 µM
same,TGI,CCRF-CEM leukemia,> 100 µM
same,TGI,HCT-15 colon,> 100 µM
same,TGI,T-47D breast,> 100 µM
same,TGI,BT-549 breast,> 100 µM
same,TGI,RXF 393 renal,> 100 µM
same,TGI,MDA-MB-435,> 100 µM
same,TGI,SW-620 colon,> 100 µM
same,TGI,HOP-92 NSCLC,> 100 µM
same,TGI,SN12C renal,> 100 µM
same,TGI,A498 renal,> 100 µM
same,TGI,SR leukemia,> 100 µM
same,TGI,RPMI-8226 leukemia,> 100 µM
same,TGI,LOX IMVI melanoma,> 100 µM
same,TGI,SF-539 CNS,> 100 µM
same,TGI,786-0 renal,> 100 µM
same,TGI,NCI/ADR-RES ovarian,> 100 µM
same,TGI,K-562 leukemia,> 100 µM
same,TGI,SNB-75 CNS,> 100 µM
same,TGI,NCI-H23 lung,> 100 µM
same,TGI,DU-145 prostate,> 100 µM
same,TGI,MALME-3M melanoma,> 100 µM
same,TGI,A549 NSCLC,> 100 µM
same,TGI,NCI-H226 lung,> 100 µM
same,TGI,HS 578T breast,> 100 µM
same,TGI,OVCAR-5 ovarian,> 100 µM
same,TGI,SF-295 CNS,> 100 µM
same,TGI,ACHN renal,> 100 µM
same,TGI,NCI-H460 lung,> 100 µM
same,TGI,HT29 colon,> 100 µM
same,TGI,OVCAR-8 ovarian,> 100 µM
same,TGI,TK-10 renal,> 100 µM
same,TGI,UACC-257 melanoma,> 100 µM
same,TGI,HCT-116 colon,> 100 µM
same,TGI,HL-60(TB) leukemia,> 100 µM
[N-]=[N+]=NCN1C(=O)C2C3C=CC(C2C1=O)C1C2C(=O)N(CN=[N+]=[N-])C(=O)C2C31 (configuration not stated),TGI,SK-MEL-2 melanoma,> 100 µM
same,TGI,EKVX NSCLC,> 100 µM
same,TGI,NCI-H522 lung,> 100 µM
same,TGI,UACC-62 melanoma,> 100 µM
same,TGI,SK-MEL-28 melanoma,> 100 µM
same,TGI,HCC-2998 colon,69.8 µM
same,TGI,CAKI-1 renal,> 100 µM
same,TGI,KM12 colon,> 100 µM
same,TGI,SK-MEL-5 melanoma,> 100 µM
same,TGI,UO-31 renal,> 100 µM
same,TGI,OVCAR-3 ovarian,> 100 µM
same,TGI,M14 melanoma,> 100 µM
same,TGI,SNB-19 CNS,> 100 µM
same,TGI,SF-268 CNS,> 100 µM
same,TGI,HOP-62 NSCLC,> 100 µM
same,TGI,MCF7 breast,> 100 µM
same,TGI,COLO 205 colon,> 100 µM
same,TGI,IGROV1 ovarian,> 100 µM
same,TGI,PC-3 prostate,> 100 µM
same,TGI,HCT-15 colon,> 100 µM
same,TGI,T-47D breast,> 100 µM
same,TGI,MDA-MB-435,> 100 µM
same,TGI,SW-620 colon,> 100 µM
same,TGI,HOP-92 NSCLC,> 100 µM
same,TGI,SN12C renal,> 100 µM
same,TGI,RPMI-8226 leukemia,> 100 µM
same,TGI,MDA-N,> 100 µM
same,TGI,LOX IMVI melanoma,> 100 µM
same,TGI,SF-539 CNS,> 100 µM
same,TGI,786-0 renal,> 100 µM
same,TGI,NCI/ADR-RES ovarian,> 100 µM
same,TGI,K-562 leukemia,> 100 µM
same,TGI,NCI-H23 lung,> 100 µM
same,TGI,DU-145 prostate,> 100 µM
same,TGI,A549 NSCLC,> 100 µM
same,TGI,HS 578T breast,> 100 µM
same,TGI,SF-295 CNS,> 100 µM
same,TGI,ACHN renal,> 100 µM
same,TGI,NCI-H460 lung,> 100 µM
same,TGI,HT29 colon,> 100 µM
same,TGI,OVCAR-8 ovarian,> 100 µM
same,TGI,TK-10 renal,> 100 µM
same,TGI,UACC-257 melanoma,> 100 µM
same,TGI,HCT-116 colon,> 100 µM
